These results are taken from article PMC7150796 (Viruses, 2020).

Data set [1] deals with rZIKV-ZsGreen. In words: microbe, parasite or virus in culture. It is filed as cell-based, Zika virus. The following applies: 24 h; for EC50 / EC90: Zika virus, Vero; for EC50: read-out: Inhibition Efficacy EC50; for EC90: read-out: Inhibition Efficacy EC90; for Inhibition Efficacy EC50 / Inhibition Efficacy EC90: rZIKV-ZsGreen, Vero B4 cells, inhibition of ZsGreen expression, highest concentration 100 µM.

Data set [2] in a line: Resazurin cell viability (cell toxicity) assay. Particulars: African green monkey. In general terms: The colour change of resazurin is a common sign of viable cells or microbes.
A further data set concerns TBEV. In kind it is cell-based, tick-borne encephalitis virus. Particulars: MOI 0.1, Vero B4, 24 hpi.
Data set [3] relates to ZIKV. In words: Focus-forming assay, ZIKV. It is filed as cell-based, Zika virus. The following applies: MOI 0.1, Vero B4, 24 hpi.
Another data set concerns JEV. Briefly: Focus-forming assay, JEV. In kind it is cell-based, Japanese encephalitis virus.
The subject of the next data set is DENV2. In words: Focus-forming assay, DENV2. It is filed as cell-based, dengue virus type 2.
In a further data set the test system is WNV. In words: Focus-forming assay, WNV. In kind it is cell-based, West Nile virus.
For the next data set, the system named is YFV. In kind it is cell-based, yellow fever virus. The following applies: MOI 0.1, Vero B4, 48 hpi.
Another data set can be described thus: in vitro. Particulars: African green monkey.
Data set [4] has as its system wt ZIKV Asian lineage (BeH819015, Brazil strain). In words: Plaque inhibition assay, wt ZIKV Asian lineage. The following applies: Vero B4 cells, 4 days.
The test system of data set [5] is ZIKV. The following applies: ref 40 (Lei Cai et al.); read-out: EC50 against ZIKV; cited from earlier work.
Data set [6] concerns two wt ZIKV lineages, Asian and African. In kind it is cell-based, Zika virus. Particulars: 2.5 µM.
The test system of data set [7] is wt ZIKV African lineage (MR766, Uganda strain). In words: Plaque inhibition assay, wt ZIKV African lineage. It is filed as cell-based, Zika virus. Particulars: 2.5 µM, Vero B4 cells, 4 days.
The test system of data set [8] is rZIKV-ZsGreen. Briefly: Time of drug addition assay.

Entries after “also recorded” stand apart in the source; their conditions may differ. Where two headings read alike, the source gives them in different places.

In general, EC50 refers to the concentration needed to bring the measured effect to its halfway point. One may read the EC90 as the concentration at which the effect reaches the 90% level. As a reminder, the viability is a read-out of living cells in per cent, often relative to untreated cells.

Take `O=C(Nc1cc(Cl)ccc1C(=O)Nc1ccccc1C(=O)O)c1ccccc1F` [Compound 35f]: in the data set on rZIKV-ZsGreen [1], the EC50 is 6.1 ± 1.4 µM and the EC90 stood at 14.9 ± 0.9 µM. Moreover, in data set [2], the viability at 24 h, 25 µM was determined as 105 ± 5%; the viability at 24 h, 50 µM amounted to 96.5 ± 3.7%; the viability at 24 h, 100 µM worked out at 92.1 ± 3.9%.

On to `NC(=O)c1ncn([C@@H]2O[C@H](CO)[C@@H](O)[C@H]2O)n1` [Ribavirin, reference compound], for which the viral titer reduction is recorded as 1.2 × 10^1 fold with TBEV (ribavirin 50 µM); 1.0 × 10^1 fold in the data set on ZIKV [3] (ribavirin 50 µM); “no significant activity” in the data set on JEV; 1.1 × 10^1 fold with DENV2; “no significant activity” with WNV; 0.9 × 10^1 fold in the data set on YFV (ribavirin 50 µM). For the same compound, the EC50 in the data set on rZIKV-ZsGreen [1] turned out to be 45.5 ± 13.5 µM. Besides, in the data set with rZIKV-ZsGreen [1], the EC90 is 114 ± 18 µM. In addition, the viability at 24 h, 25 µM in “in vitro” was 96 ± 1%. Besides, in “in vitro”, the viability at 24 h, 50 µM was 95 ± 2.8%. For the same compound, in “in vitro”, the viability at 24 h, 100 µM was 93.5 ± 3.4%. Also, the “plaque formation, dose-dependent” value in data set [4] (ribavirin from 200 to 6.3 µM) was “only showed inhibition of plaque formation at 200 µM”.

With `NC(=O)c1nc(F)c[nH]c1=O` [Favipiravir, reference compound], the EC50 in the data set on ZIKV [5] was 111 ± 13.1 µM. For the same compound, in the data set on rZIKV-ZsGreen [1], the “Inhibition Efficacy EC50” value is “Not achieved” and the “Inhibition Efficacy EC90” value is recorded as “Not achieved”. In addition, in the data set with rZIKV-ZsGreen [1] (listed as favipiravir), the “Inhibition Efficacy EC50” value was “no antiviral activity”. In addition, in data set [2] (Vero B4 cells), the viability at 24 h, 25 µM amounted to 97.4 ± 0.7%; the viability at 24 h, 50 µM turned out to be 95 ± 1.4%; the viability at 24 h, 100 µM stood at 97.9 ± 2.2%.

On to `CC(C)(C)C(=O)Nc1cc(F)c(F)cc1C(=O)Nc1ccccc1C(=O)O` [Compound 17d], for which, in the data set on rZIKV-ZsGreen [1], the “Inhibition Efficacy EC50” value is reported as “no antiviral activity; also recorded: Not achieved” and the “Inhibition Efficacy EC90” value is “Not achieved”. In data set [2], the viability at 24 h, 25 µM amounted to 105.1 ± 0.1%; the viability at 24 h, 50 µM was 106 ± 4.2%; the viability at 24 h, 100 µM amounted to 104.9 ± 0.9%.

Turning to `O=C(Nc1ccccc1C(=O)Nc1ccccc1C(=O)O)c1ccccc1` [Benzavir-1, 2-{[2-(benzoylamino)benzoyl]amino}-benzoic acid], in the data set with rZIKV-ZsGreen [1], the EC50 amounted to 3 ± 0.1 µM and the EC90 amounted to 3.3 ± 0.1 µM. In data set [2], the viability at 24 h, 25 µM was determined as 98.8 ± 3.4%; the viability at 24 h, 50 µM was 88.3 ± 1.4%; the viability at 24 h, 100 µM was determined as 88.1 ± 2.1%.

As to `O=C(Nc1cc(F)c(F)cc1C(=O)Nc1ccccc1C(=O)O)c1ccccc1F` [Benzavir-2, 2-[4,5-Difluoro-2-(2-fluorobenzoylamino)-benzoylamino]benzoic acid], the viral titer reduction was 7.5 × 10^3 fold in the data set with TBEV (benzavir-2 2.5 µM); 1.0 × 10^3 fold in the data set on ZIKV [3] (benzavir-2 2.5 µM); 7.5 × 10^3 fold with JEV; 5.6 × 10^4 fold in the data set with DENV2; 2.2 × 10^4 fold in the data set with WNV; 1.5 × 10^3 fold in the data set with YFV (benzavir-2 2.5 µM). Moreover, the “CPE in cells infected with progeny virus from treated cells” value in [6] (day 2 post-progeny virus transfer) is given as “minor CPE”. In data set [6] (day 4, crystal violet), the “plaque formation in cells infected with progeny virus from treated cells” value is recorded as “only a few visible plaques”. Also, the “reduction of plaque formation” value in data set [7] is 94%; in data set [4] (2.5 µM, Asian lineage), 88%. For the same compound, the EC50 in the data set on rZIKV-ZsGreen [1] came to 0.8 ± 0.1 µM. Besides, the EC90 in the data set on rZIKV-ZsGreen [1] worked out at 1.2 ± 0.3 µM. In addition, the “inhibitory effect, time of addition” value with rZIKV-ZsGreen [8] (10 µM added at 2–4 h post-infection, read 24 h) is given as “most pronounced”; in the data set on rZIKV-ZsGreen [8] (10 µM, binding and entry steps (0–2 h), read 24 h), “less affected”; with rZIKV-ZsGreen [8] (10 µM, later time-points post-infection, read 24 h) it was “less inhibition”; in the data set with rZIKV-ZsGreen [8] (10 µM, pre-incubation prior to infection (−2 h), compared to 2–4 h), “much lower”. Also, in data set [2], the viability at 24 h, 25 µM is 100 ± 1.8%. Also, the viability at 24 h, 50 µM in [2] was determined as 96.8 ± 0.6%. The viability at 24 h, 100 µM in [2] came to 94.3 ± 1.8%. Also, the “plaque formation, dose-dependent” value in data set [4] (benzavir-2 from 20 to 0.6 µM) was “significant reduction of plaque formation at all applied concentrations”.
